Results taken from patent US20070043512A1, “Therapeutic and prophylactic compositions and uses therefor” (priority 2003, published 2007).
Values joined by “and” are separate entries in the source; they are usually repeats but may differ in a detail not shown here. Identical values can stand only once. “Also recorded” adds a separate entry of the source.

Experiments:
Assay type in all cases: cell-based, human
aP2 gene expression [1] = assay: Real-time PCR, aP2 gene expression in NHBE cells; conditions: for Effect on aP2 expression: NHBE (HBE) cells, stimuli for 18 h, real-time PCR (FIG. 2); for Fold-Change aP2 gene expression (real-time PCR): NHBE cells, 10 ng/ml cytokine, 18 h, vs unstimulated, mean of two RNA sets used in arrays
Protocol: (§1) When NHBE cells were 80% confluent and between passage 7 and 8, they were washed in PBS (Gibco) and starved for 24 h in Clonetics bronchial epithelial cell basal medium (BEBM) containing 0.1% w/v BSA.
(§2) Total RNA was isolated from cells using the RNeasy Total RNA Isolation Kit (Qiagen, Chatswort, Calif.) or Trizol (Invitrogen, CA) as per the manufacturer's instructions.
(§3) cDNA was made using Reverse-IT RTase Blend Kit (ABgene, UK) or Avian myeloblastosis virus Reverse Transcriptase (Promega, Madison, Wis.) according to manufacturer's instructions. Oligo-p(dt)15 primer (Roche Molecular Biochemicals) was used at 1 μM in both cDNA preparation methods. Following cDNA synthesis, 1 μl of cDNA template was used for each PCR. Real-time PCR was conducted using Light Cycler-FastStart DNA Master SYBR Green I kit (Roche Molecular Biochemicals) according to manufacturer's specifications using 2 mM MgCl2 and 1 μM primers. Human aP2 forward and reverse primers and FABP-5 forward and primers were designed from Genbank sequences using Primer3 software (Rozen and Skaletsky, Methods Mol. Biol. 132: 365-386, 2000):
(§4) After an initial denaturation for 10 min at 95° C., the samples were run for 40 cycles at 95° C. (15 s), 63° C. (5 s), and 72° C. (10 s). At the end of each cycle, the fluorescence was measured in a single step in channel F1. After the 40th cycle, the specimens were heated to 95° C. and cooled to 65° C. for 15 s. All heating and cooling steps were performed with a slope of 20° C./sec. The temperature was then raised to 95° C. at a rate of 0.1° C./sec and fluorescence was measured continuously (channel F1) to obtain a melting curve for the PCR products. Each gene was normalized to a housekeeping gene GAPDH before fold change was calculated (using crossing point values) to account for variations between different samples. The aP2 PCR product was confirmed by size on a 2% w/v agarose gel and by sequencing at Sydney University Prince Alfred Macromolecular Analysis Centre, NSW, Australia.
Using the same RNA samples as were used for the microarray experiments, aP2 gene expression was analysed using real-time PCR. […] Data are the mean from the two sets of RNA that were used in the array experiments.

aP2 gene expression [2] = assay: Real-time PCR, aP2 gene expression in NHBE cells; conditions: NHBE (HBE) cells, subsequent experiment
aP2 expression = aP2 expression in THP-1 cells; conditions: 10 ng/ml IL-4, 10 ng/ml IL-13 or 28 ng/ml IFN-γ (FIG. 6)
Protocol: FIG. 6 is a graphical representation showing aP2 expression in THP-1 cells stimulated with (A) 10 ng/ml IL-4, 10 ng/ml IL-13 or 28 ng/ml IFN-γ or (B) 50 ng/ml PMA. The data are mean±SEM from three independent experiments.
To address this issue, the effect of IL-4, IL-13 and IFN-γ on expression of aP2 in the human monocyte cell line THP-1 was examined.

FABP-5 gene expression [3] = assay: Real-time PCR, FABP-5 (mal1) gene expression in NHBE cells; conditions: for Effect on FABP-5 (mal1) expression, real-time PCR: NHBE (HBE) cells, 10 ng/ml (FIG. 3)
Protocol: as §1, §2, §3, §4

FABP-5 gene expression [4] = assay: Microarray, FABP-5 gene expression in synovial fibroblasts (RA/OA synoviocytes); set-up: key: I, increased; D, decreased; NC, no change; conditions: 10 ng/ml, 4 h
aP2 protein expression = assay: Immunofluorescent staining of aP2 protein in NHBE cells; conditions: NHBE (HBE) cells, 10 ng/ml, 24 h
Protocol: NHBE cells were grown in chamber slides and treated with culture medium alone, or with medium supplemented with 10 ng/ml IL-4 or 10 ng/ml IL-13. After 24 h, the culture medium was removed and the cells were air-dried for 30 min. The cells were fixed in 1% v/v paraformaldehyde for 20 min at room temperature. The slides were washed in PBS and the cells were permeabilised in 70% v/v ethanol at −20° C. for 20 min. The cells were washed in PBS-Triton for 5 min, and then blocked for 60 min with 10% v/v normal goat serum in 2% v/v BSA/Tris-buffered saline (TBS). The normal goat serum was removed and […] (1:1000 dilution in 2% BSA/TBS) or rabbit isotype control (1:4 dilution; Zymed) was added. The slides were incubated overnight at room temperature, washed 3×5 min in TBS-Triton (TBS-T), and incubated with secondary Ab (TRITC-conjugated anti-rabbit Ig; dilution 1:100) for 1 h at room temperature. The slides were washed in TBS-T for 5 min, and cover-slipped after the addition of Vectashield. The slides were examined on a confocal microscope.

aP2 gene expression [5] = assay: Affymetrix U95A microarray, aP2 gene expression in stimulated NHBE cells; set-up: key to Regulation of aP2 gene expression: I, increased; D, decreased; NC, no change; conditions: 18 h; for Fold-Change aP2 gene expression: NHBE cells, 10 ng/ml cytokine, vs unstimulated cells, mean of both micro-array experiments; for Fold change aP2 gene expression / Regulation of aP2 gene expression: NHBE, 10 ng/ml, vs ctrl, individual array comparisons
Protocol: NHBE primary cell lines were purchased from Clonetics (San Diego, Calif.). Both NHBE cell lines, lot 8F1142 and 7F1482, were isolated […]. NHBE cells were maintained in Clonetics bronchial epithelial growth media (BEGM), which included supplements of 52 μg/ml bovine pituitary extract, 0.5 μg/ml hydrocortisone, 0.5 μg/ml human recombinant epidermal growth factor, 0.5 μg/ml epinephrine, 10 μg/ml transferrin, 5 μg/ml insulin, 0.1 μg/ml retinoic acid, 6.5 μg/ml triiodothryonine, 50 μg/ml gentamycin and 50 μg/ml amphotericin B (Clonetics). Medium was replaced every three to four days. When confluent, cells were subcultured at a ratio of 1:3.
as §1
A preliminary time course experiment in IL-4 and IL-13 stimulated NHBE identified 18 h as a time point associated with strong gene regulation and this time point was selected for subsequent analysis. Gene expression in unstimulated- and IL-4- and IL-13-stimulated NHBE was measured using Affymetrix U95A Gene Chips. The experiment was performed twice, using two independent NHBE lines. One novel finding was increased expression of the adipocyte gene aP2 in the cytokine stimulated NHBE cells (Table 3).
NHBE cells were stimulated with 10 ng/ml IL-4 or 10 ng/ml IL-13. After 18 h, gene expression in these cells, and in unstimulated NHBE cells, was analysed using Affymetrix U95A chips. The fold-change in gene expression following cytokine stimulation compared to unstimulated NHBE cells is shown. Data are the mean of both micro-array experiments.
(§5) Depending on the quantity of RNA available, cRNA was prepared according to the GeneChip Expression Analysis Technical Manual (Array experiment 1; Affymetrix, Santa Clara, Calif.) or the cRNA methods published in Baugh et al., Nucleic Acids Res. 29(5): E29, 2001 (Array experiment 2). The GeneChip Expression Analysis protocol involved cDNA synthesis from 20 μg of total RNA using a poly(T) primer containing a T7 RNA polymerase promoter (Geneworks, Australia):
(§6) cRNA was transcribed from cDNA and biotinylated using the BioArray High Yield RNA Transcript Labeling Kit (Enzo Diagnostics, Farmingdale, N.Y.). Twenty micrograms of cRNA was fragmented by heating at 94° C. for 35 min in fragmentation buffer (40 mM Tris acetate (pH 8.1), 125 mM KOAc, 30 mM MgOAc) prior to hybridization. For the small-scale cRNA amplification (Baugh et al., 2001, supra), cDNA synthesis volumes were different from the GeneChip Expression Analysis Technical Manual but reaction component concentrations, incubation times and temperatures were conserved. Five hundred nanograms of RNA was used and 15 μg cRNA was fragmented prior to hybridization.
(§7) Hybridization cocktails were then made by adding fragmented cRNA, control cRNAs, grid alignment oligonucleotides and blocking reagents. These mixtures were hybridised overnight (˜16 h) to individual Test3 (Affymetrix) arrays at 45° C., under constant rotation at 60 rpm. Washing and staining of the hybridized arrays were performed by an Affymetrix Fluidics Station, according to the manufacturer's protocols. Fluorescent signals were measured on the arrays using the Agilent GeneArray Laser Scanner and gene transcript levels were determined and scaled to 150 using algorithms in MicroArray Analysis Suite Software 5.0 (Affymetrix). For each array experiment, the hybridization cocktails met the test three criteria (background less then 150, GAPDH and β-actin 3′/5′ ratios less then three and similar scaling factors between samples), and were used to probe Affymetrix U95A GeneChips. Relative mRNA expression levels on the IL-4 and IL-13 stimulated NHBE arrays were expressed as plus or minus fold changes when compared to the control NHBE array.
Regulation of aP2 gene expression was examined for all comparison arrays in which aP2 expression was detected. […]

FABP-5 gene expression [6] = assay: Microarray, FABP-5 gene expression in NHBE cells; set-up: key to Regulation of FABP-5 gene expression: I, increased; D, decreased; NC, no change; conditions: for Effect on FABP-5 (mal1) expression, microarray: NHBE (HBE) cells; for Fold change FABP-5 gene expression / Regulation of FABP-5 gene expression: NHBE, 10 ng/ml, 18 h, vs ctrl
Protocol: as §1, §5, §6, §7
Positive/negative fold change indicates greater/lesser gene expression in the first-named array, respectively. I, increased; D, decreased; NC, no change. Where the same type of array comparison is listed more than once, this represents repeat experiments.

FABP-5 gene expression [7] = assay: Microarray, FABP-5 gene expression in bronchial smooth muscle cells (BSMC); set-up: key to Regulation of FABP-5 gene expression: I, increased; D, decreased; NC, no change; conditions: 10 ng/ml, 18 h, vs ctrl

CCCCCCCCCCCCCC(=O)O[C@@H]1[C@@H](C)[C@@]2(O)[C@@H](C=C(CO)C[C@]3(O)C(=O)C(C)=C[C@@H]23)[C@@H]2C(C)(C)[C@]12OC(C)=O [PMA, phorbol myristate acetate, reference compound]
Effect on aP2 expression (aP2 gene expression [1]): slight down-regulation; also recorded: slight downregulation

Cc1cccc(Nc2cc(Cl)nc(SCC(=O)O)n2)c1C [WY14643]
Effect on aP2 expression (aP2 gene expression [2]): little or no effect

IFN-γ: prototypic type 1 cytokine, 28 ng/ml
Effect on aP2 expression (aP2 expression): reduced expression | Effect on mal1 expression (FABP-5 gene expression [3]; HBE cells, summary statement, method not stated): down-regulated | Effect on aP2 expression (aP2 gene expression [1]): strongly down-regulated | Effect on aP2 expression (aP2 gene expression [1]; listed as IFNg): down-regulated | Effect on aP2 expression (aP2 gene expression [1]; listed as IFNγ): strongly downregulated

IL-1: cytokine Interleukin (IL)-1β used as stimulus, 10 ng/ml
Regulation of FABP-5 gene expression (FABP-5 gene expression [4]; RA synoviocytes, vs RA ctrl): NC | Effect on aP2 expression (aP2 gene expression [1]): no effect

IL-4: allergy-associated type-2 cytokine used as stimulus, 10 ng/ml (BD)
Intensity of aP2 staining vs unstimulated cells (aP2 protein expression): considerably greater | Nuclear localisation of aP2 (aP2 protein expression): significant nuclear localisation | Effect on aP2 expression (aP2 expression): stimulated aP2 expression | Effect on FABP-5 (mal1) expression, real-time PCR (FABP-5 gene expression [3]): up-regulated; also recorded: upregulated | Fold-Change aP2 gene expression (aP2 gene expression [5]): 33.4 | Fold change aP2 gene expression (aP2 gene expression [5]): 48.5 and 18.4 | Regulation of aP2 gene expression (aP2 gene expression [5]): I | Regulation of FABP-5 gene expression (FABP-5 gene expression [4]; RA synoviocytes, vs RA ctrl): NC | Effect on FABP-5 (mal1) expression, microarray (FABP-5 gene expression [6]): mildly up-regulated | Fold change FABP-5 gene expression (FABP-5 gene expression [6]): 1.4 and 2 | Regulation of FABP-5 gene expression (FABP-5 gene expression [6]): I | Fold-Change aP2 gene expression (real-time PCR) (aP2 gene expression [1]): 65

IL-6: cytokine stimulus, 5 ng/ml (BD)
Effect on aP2 expression (aP2 gene expression [1]): no effect

IL-13: allergy-associated type-2 cytokine used as stimulus, 10 ng/ml (BD)
Intensity of aP2 staining vs unstimulated cells (aP2 protein expression): considerably greater | Nuclear localisation of aP2 (aP2 protein expression): significant nuclear localisation | Effect on aP2 expression (aP2 expression): stimulated aP2 expression | Effect on FABP-5 (mal1) expression, real-time PCR (FABP-5 gene expression [3]): up-regulated; also recorded: upregulated | Fold-Change aP2 gene expression (aP2 gene expression [5]): 31.8 | Fold change aP2 gene expression (aP2 gene expression [5]): 45.3 and 18.4 | Regulation of aP2 gene expression (aP2 gene expression [5]): I | Fold change FABP-5 gene expression (FABP-5 gene expression [7]): 1.7 | Regulation of FABP-5 gene expression (FABP-5 gene expression [7]): NC and I | Effect on FABP-5 (mal1) expression, microarray (FABP-5 gene expression [6]): mildly up-regulated | Fold change FABP-5 gene expression (FABP-5 gene expression [6]): 1.5 | Regulation of FABP-5 gene expression (FABP-5 gene expression [6]): I and NC | Fold-Change aP2 gene expression (real-time PCR) (aP2 gene expression [1]): 56

TNFα
Regulation of FABP-5 gene expression (FABP-5 gene expression [4]; OA synoviocytes, vs OA ctrl): NC | Regulation of FABP-5 gene expression (FABP-5 gene expression [4]; RA synoviocytes, vs RA ctrl): NC | Effect on aP2 expression (aP2 gene expression [1]): no effect

B1: IL-10: cytokine stimulus, 10 ng/ml (BD) (protein, UniProt P22301 19-178, looked up)
Interleukin-10: SPGQGTQSENSCTHFPGNLPNMLRDLRDAFSRVKTFFQMKDQLDNLLLKESLLEDFKGYLGCQALSEMIQFYLEEVMPQAENQDPDIKAHVNSLGENLKTLRLRLRRCHRFLPCENKSKAVEQVKNAFNKLQEKGIYKAMSEFDIFINYIEAYMTMKIRN
Effect on aP2 expression (aP2 gene expression [1]): no effect
